Data reported in patent US6372740B1, “2-aryl-8-oxodihydropurine derivative, process for the producing the same, medicinal compositions containing the same, and intermediates thereof” (Dainippon Pharmaceutical Co., Ltd., priority 1997, dated 2002).

| melting point [°C] | Compound |
| --- | --- |
| 185 to 187 | CCN(C(=O)Cn1c(=O)n(C)c2nc(-c3ccccc3)nc(-c3ccccc3)c21)c1ccccc1 [Example 41] |
| 207 to 209 | CCN(CC)C(=O)Cn1c(=O)n(C)c2nc(-c3ccccc3)ncc21 [Example 19] |
| 134 to 135 | CCCN(CCC)C(=O)Cn1c(=O)n(CC)c2nc(-c3ccccc3)ncc21 [Example 33] |
| 154 to 155 | CCN(C(=O)Cn1c(=O)n(CC)c2cnc(-c3ccccc3)nc21)c1ccccc1 [Example 167] |
| 187 to 189 | CCn1c(=O)n(CC(=O)N(C)C)c2nc(-c3ccccc3)ncc21 [Example 128] |
| 198 to 200 | CCN(CC)C(=O)Cn1c(=O)n(CC)c2cnc(-c3ccccc3)nc21 [Example 125] |
| 192 to 193 | CCCCN(CCCC)C(=O)Cn1c(=O)n(C)c2cnc(-c3ccccc3)nc21 [Example 134] |
| 135 to 136 | CCCCN(CCCC)C(=O)Cn1c(=O)n(CC)c2cnc(-c3ccccc3)nc21 [Example 135] |
| 150 to 151 | CCCN(CC)C(=O)Cn1c(=O)n(C)c2nc(-c3ccccc3)ncc21 [Example 34] |
| 165 to 167 | CCN(C(=O)Cn1c(=O)n(CC)c2nc(-c3ccccc3)ncc21)c1ccccc1 [Example 16] |
| 281 to 284 | CCN(C(=O)Cn1c(=O)[nH]c2nc(-c3ccccc3)ncc21)c1ccccc1 [Example 9] |
| 138 to 139 | CCCCN(CCCC)C(=O)Cn1c(=O)n(C)c2nc(-c3ccccc3)ncc21 [Example 63] |
| 207 to 209 | CCCCN(C(=O)Cn1c(=O)n(C)c2nc(-c3ccccc3)ncc21)c1ccccc1 [Example 62] |
| 286 to 287 | CN(C(=O)Cn1c(=O)[nH]c2cnc(-c3ccccc3)nc21)c1ccccc1 [Example 98] |
| 168 to 170 | CCCN(C(=O)Cn1c(=O)n(CC)c2nc(-c3ccccc3)ncc21)c1ccccc1 [Example 61] |
| 204 to 206 | CCN(CC)C(=O)Cn1c(=O)n(C)c2cnc(-c3ccccc3)nc21 [Example 124] |
| 125 to 127 | CCCN(CCC)C(=O)Cn1c(=O)n(CCC)c2cnc(-c3ccccc3)nc21 [Example 120] |
| 160 to 161 | CCn1c(=O)n(CC(=O)N(C)c2ccccc2)c2cnc(-c3ccccc3)nc21 [Example 8] |
| 129 to 130 | CCCCn1c(=O)n(CC(=O)N(CCC)CCC)c2nc(-c3ccccc3)ncc21 [Example 122] |

| melting point [°C] | Compound |
| --- | --- |
| 196 to 198 | CCCCN(CCCC)C(=O)Cn1c(=O)[nH]c2cnc(-c3ccccc3)nc21 [Example 95] |
| 195 to 196 | CCN(C(=O)Cn1c(=O)n(C)c2nc(-c3cccnc3)ncc21)c1ccccc1 [Example 38] |
| 174 to 175 | CCN(C(=O)Cn1c(=O)n(C)c2nc(-c3ccc(Cl)cc3)ncc21)c1ccccc1 [Example 11] |
| > 300 | CN(C)C(=O)Cn1c(=O)[nH]c2cnc(-c3ccccc3)nc21 [Example 86] |
| 141 to 143 | CCCn1c(=O)n(CC(=O)N(CC)CC)c2nc(-c3ccccc3)ncc21 [Example 126] |
| 221 to 223 | CCCN(C(=O)Cn1c(=O)n(C)c2nc(-c3ccccc3)ncc21)c1ccccc1 [Example 60] |
| 198 to 199 | CCN(Cc1ccc(Cl)cc1)C(=O)Cn1c(=O)n(C)c2nc(-c3ccccc3)ncc21 [Example 77] |
| 204 to 206 | CN(C)C(=O)Cn1c(=O)n(C)c2nc(-c3ccccc3)ncc21 [Example 35] |
| 138 to 139 | CCCn1c(=O)n(CC(=O)N(CC)c2ccccc2)c2cnc(-c3ccccc3)nc21 [Example 17] |
| 222 to 224 | CCN(CC)C(=O)Cn1c(=O)[nH]c2cnc(-c3ccccc3)nc21 [Example 85] |
| 268 to 270 | CN(C(=O)Cn1c(=O)[nH]c2cnc(-c3cccnc3)nc21)c1ccccc1 [Example 84] |
| 183 to 185 | CCCn1c(=O)n(CC(=O)N(C)c2ccccc2)c2nc(-c3ccccc3)ncc21 [Example 158] |
| 258 to 260 | CCCN(C(=O)Cn1c(=O)[nH]c2cnc(-c3ccccc3)nc21)c1ccccc1 [Example 96] |
| 140 to 142 | CCCn1c(=O)n(CC(=O)N(CC)c2ccccc2)c2nc(-c3ccccc3)ncc21 [Example 168] |
| 148 to 150 | CCN(CC)C(=O)Cn1c(=O)n(CC)c2nc(-c3ccccc3)ncc21 [Example 25] |
| 216 to 217 | CN(C(=O)Cn1c(=O)n(C)c2cnc(-c3cccnc3)nc21)c1ccccc1 [Example 171] |
| 262 to 264 | CN(C)C(=O)Cn1c(=O)n(C)c2cnc(-c3ccccc3)nc21 [Example 127] |
| 174 to 176 | CCCN(C(=O)Cn1c(=O)n(C)c2cnc(-c3ccccc3)nc21)c1ccccc1 [Example 169] |
